From US8822449B2, “Substituted aminoindanes and analogs thereof, and the pharmaceutical use thereof” (Sanofi, priority 2008, dated 2014)

target: T1, sodium-proton exchanger of subtype 3 (NHE3) (Homo sapiens, UniProt P48764); test: Recovery of intracellular pH (pHi) after acidification in LAP1 cells stably expressing NHE3 (BCECF fluorescence, FLIPR); assay type: cell-based; conditions: LAP1 cells stably expressing NHE3; pH recovery after acidification; range 1 is % inhibition at 10 μM; read-out: Activity range (inhibitory effect on NHE3)
T1 construct: expressed in transfected cells
T1 sequence (P48764 26-834): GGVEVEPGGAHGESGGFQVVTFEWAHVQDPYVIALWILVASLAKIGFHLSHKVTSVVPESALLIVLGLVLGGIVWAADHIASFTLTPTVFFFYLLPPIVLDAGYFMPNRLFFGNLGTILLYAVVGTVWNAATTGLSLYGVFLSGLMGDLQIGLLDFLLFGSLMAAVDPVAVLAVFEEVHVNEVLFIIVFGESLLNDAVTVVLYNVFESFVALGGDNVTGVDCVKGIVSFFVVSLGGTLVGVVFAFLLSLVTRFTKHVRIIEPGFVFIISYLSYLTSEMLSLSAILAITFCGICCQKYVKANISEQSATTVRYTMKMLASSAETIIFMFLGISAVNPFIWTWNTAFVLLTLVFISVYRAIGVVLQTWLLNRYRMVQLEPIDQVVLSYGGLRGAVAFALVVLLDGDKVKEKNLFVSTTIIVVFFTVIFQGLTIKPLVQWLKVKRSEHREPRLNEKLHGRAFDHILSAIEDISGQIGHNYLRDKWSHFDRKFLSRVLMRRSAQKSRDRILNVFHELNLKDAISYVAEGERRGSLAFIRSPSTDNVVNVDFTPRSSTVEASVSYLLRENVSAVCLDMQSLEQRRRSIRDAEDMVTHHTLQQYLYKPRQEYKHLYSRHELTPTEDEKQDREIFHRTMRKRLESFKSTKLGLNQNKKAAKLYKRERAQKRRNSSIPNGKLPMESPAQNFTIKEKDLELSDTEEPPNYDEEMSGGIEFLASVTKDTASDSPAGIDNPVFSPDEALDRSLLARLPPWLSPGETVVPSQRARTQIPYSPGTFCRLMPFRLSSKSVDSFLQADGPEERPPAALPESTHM

IC50 | inhibition at 10 µM | Compound
1 to 10 µM |  | COc1ccc(C)cc1O[C@@H]1c2ccccc2C[C@H]1N1CCC(CN)CC1 (racemic) [Example 606, C-{1-[rac-trans-(1,2)-1-(2-methoxy-5-methylphenoxy)indan-2-yl]piperidin-4-yl}methylamine]
1 to 10 µM |  | CS(=O)(=O)c1ccc(O[C@H]2c3cc(Cl)cc(F)c3C[C@@H]2NC2CCCC2)cc1 [Example 751, [trans-(1S,2S)-6-Chloro-4-fluoro-1-(4-methanesulfonyl-phenoxy)-indan-2-yl]-cyclopentyl-amine]
 | 20 to 50% | Cc1cc(C)c2cccnc2c1O[C@H]1c2ccccc2CC[C@@H]1N1CCOCC1 (racemic) [Example 573, 5,7-dimethyl-8-(rac-trans-(1,2)-2-morpholin-4-yl-1,2,3,4-tetrahydronaphthalen-1-yloxy)quinoline]
< 1 µM |  | CS(=O)(=O)c1nccn1-c1ccc(O[C@H]2c3cc(Cl)cc(Cl)c3C[C@@H]2N2CC[C@@H](O)C2)cc1 [Example 731, (R)-1-{trans-(1S,2S)-4,6-Dichloro-1-[4-(2-methanesulfonyl-imidazol-1-yl)-phenoxy]-indan-2-yl}-pyrrolidin-3-ol]
 | 20 to 50% | N#Cc1ccc(O[C@H]2c3ccccc3CC[C@@H]2N2CCOCC2)cc1F (racemic) [Example 396, 2-fluoro-4-(rac-trans-(1,2)-2-morpholin-4-yl-1,2,3,4-tetrahydronaphthalen-1-yloxy)benzonitrile]
< 1 µM |  | NS(=O)(=O)c1ccc(OC2c3ccccc3CC2N2CCCC2)c(Cl)c1Cl (racemic) [Example 357, 2,3-dichloro-4-(rac-trans-(1,2)-2-pyrrolidin-1-ylindan-1-yloxy)benzenesulfonamide]
 | 20 to 50% | COc1ccc(C)cc1O[C@H]1c2ccccc2CC[C@@H]1N1CCC[C@@H](N)C1 (racemic) [Example 46, (R)-1-[rac-trans-(1,2)-1-(2-methoxy-5-methylphenoxy)-1,2,3,4-tetrahydronaphthalen-2-yl]piperidin-3-ylamine]
< 1 µM |  | CS(=O)(=O)c1ccc(O[C@H]2c3cc(Cl)cc(Cl)c3C[C@@H]2N2CCCN(CCO)CC2)cc1 (racemic) [Example 383, 2-{4-[rac-trans-(1,2)-4,6-dichloro-1-(4-methanesulfonylphenoxy)indan-2-yl]-[1,4]diazepan-1-yl}-ethanol]
< 1 µM |  | N[C@H]1CCCN([C@@H]2Cc3ccccc3[C@H]2Oc2cccc(N3CCNCC3)c2)C1 (racemic) [Example 169, (S)-1-[rac-trans-(1,2)-1-(3-piperazin-1-ylphenoxy)indan-2-yl]piperidin-3-ylamine]
< 1 µM |  | N#Cc1ccc(O[C@H]2c3cc(Cl)cc(Cl)c3C[C@@H]2N2CCC[C@@H](N)C2)c(F)c1 [Example 479, 4-[(1S,2S)-2-((R)-3-aminopiperidin-1-yl)-4,6-dichloroindan-1-yloxy]-3-fluorobenzonitrile]
 | 20 to 50% | CCC(=O)c1cc(F)c(O[C@H]2c3ccccc3CC[C@@H]2N2CCC[C@H](N)C2)c(F)c1 (racemic) [Example 327, 1-{4-[rac-trans-(1,2)-2-((S)-3-aminopiperidin-1-yl)-1,2,3,4-tetrahydronaphthalen-1-yloxy]-3,5-difluorophenyl}propan-1-one]
 | 20 to 50% | Cn1ccn(-c2cc(O[C@H]3c4cc(Cl)cc(Cl)c4C[C@@H]3N3CC[C@@H](O)C3)ccc2F)c1=O [Example 745, 1-{5-[trans-(1S,2S)-4,6-Dichloro-2-((R)-3-hydroxy-pyrrolidin-1-yl)-indan-1-yloxy]-2-fluoro-phenyl}-3-methyl-1,3-dihydro-imidazol-2-one]
< 1 µM |  | NS(=O)(=O)c1ccc(O[C@H]2c3cc(Cl)ccc3C[C@@H]2N2CCCC2)cc1 (racemic) [Example 473, 4-(rac-trans-(1,2)-6-chloro-2-pyrrolidin-1-ylindan-1-yloxy)benzenesulfonamide]
1 to 10 µM |  | COc1cc(Cl)cc(O[C@H]2c3ccccc3CC[C@@H]2N2CCC[C@H](N)C2)c1 (racemic) [Example 163, (S)-1-[rac-trans-(1,2)-1-(3-chloro-5-methoxyphenoxy)-1,2,3,4-tetrahydronaphthalen-2-yl]piperidin-3-ylamine]
1 to 10 µM |  | NC(=O)c1cccc(O[C@@H]2c3ccccc3C[C@H]2N2C[C@H]3CNC[C@H]3C2)c1 (racemic) [Example 410, 3-[rac-trans-(1,2)-2-(hexahydropyrrolo[3,4-c]pyrrol-2-yl)indan-1-yloxy]benzamide]
 | 20 to 50% | Cc1nc2cc(O[C@H]3c4cc(Cl)cc(Cl)c4C[C@@H]3N3CC[C@@H](O)C3)ccc2s1 [Example 96, (R)-1-[trans-(1S,2S)-4,6-dichloro-1-(2-methylbenzothiazol-5-yloxy)indan-2-yl]pyrrolidin-3-ol]
1 to 10 µM |  | COc1cccc(F)c1O[C@@H]1c2ccccc2C[C@H]1N1C[C@H]2CNC[C@H]2C1 (racemic) [Example 5, 2-[rac-trans-(1,2)-1-(2-fluoro-6-methoxyphenoxy)indan-2-yl]octahydropyrrolo[3,4-c]pyrrole]
 | 20 to 50% | CCC(CC)N[C@@H]1Cc2ccccc2[C@H]1Oc1ccc(S(C)(=O)=O)cc1 (racemic) [Example 723, (1-Ethyl-propyl)-[rac-trans-(1,2)-1-(4-methanesulfonyl-phenoxy)-indan-2-yl]-amine]
< 1 µM |  | Cc1nnc(C)n1-c1ccc(O[C@H]2c3cc(Cl)ccc3C[C@@H]2N2CCCC2)c(Cl)c1 [Example 492, 4-[3-chloro-4-(trans-(1S,2S)-6-chloro-2-pyrrolidin-1-ylindan-1-yloxy)phenyl]-3,5-dimethyl-4H-[1,2,4]triazole]
1 to 10 µM |  | NC(=O)c1ccccc1O[C@H]1c2ccccc2CC[C@@H]1N1CCC[C@@H](N)C1 (racemic) [Example 368, 2-[rac-trans-(1,2)-2-((R)-3-aminopiperidin-1-yl)-1,2,3,4-tetrahydronaphthalen-1-yloxy]benzamide]
< 1 µM |  | NS(=O)(=O)c1ccc(O[C@H]2c3cc(Cl)cc(Cl)c3C[C@@H]2N2CC[C@@H](O)C2)cc1 [Example 743, 4-[trans-(1S,2S)-4,6-Dichloro-2-((R)-3-hydroxy-pyrrolidin-1-yl)-indan-1-yloxy]-benzenesulfonamide]
1 to 10 µM |  | Cc1nc2cc(O[C@H]3c4cc(Cl)cc(Cl)c4C[C@@H]3N3CCNCC3)ccc2s1 (racemic) [Example 572, 5-(rac-trans-(1,2)-4,6-dichloro-2-piperazin-1-ylindan-1-yloxy)-2-methylbenzothiazole]
1 to 10 µM |  | NS(=O)(=O)c1ccc(O[C@H]2c3c(Cl)cccc3C[C@@H]2N2CCCC2)cc1 (racemic) [Example 476, 4-(rac-trans-(1,2)-7-chloro-2-pyrrolidin-1-ylindan-1-yloxy)benzenesulfonamide]
1 to 10 µM |  | N#Cc1ccc(O[C@H]2c3ccccc3CC[C@@H]2N2CCC[C@H](N)C2)cc1 (racemic) [Example 535, 4-[rac-trans-(1,2)-2-((S)-3-aminopiperidin-1-yl)-1,2,3,4-tetrahydronaphthalen-1-yloxy]benzonitrile]
1 to 10 µM |  | CCc1ccc(O[C@@H]2c3ccccc3C[C@H]2N2CCC(CN)C2)c(C(C)(C)C)c1 (mixture of isomers) [Example 610, C-{1-[rac-trans-(1,2)-1-(2-tert-butyl-4-ethylphenoxy)indan-2-yl]pyrrolidin-3-yl}methylamine]
1 to 10 µM |  | c1cc(O[C@@H]2c3ccccc3C[C@H]2N2C[C@H]3CNC[C@H]3C2)cc(N2CCNCC2)c1 (racemic) [Example 13, 2-[rac-trans-(1,2)-1-(3-piperazin-1-ylphenoxy)indan-2-yl]octahydropyrrolo[3,4-c]pyrrole]
1 to 10 µM |  | O=C1OCCN1c1cccc(O[C@H]2c3cc(Cl)cc(Cl)c3C[C@@H]2N2CC[C@@H](O)C2)c1 [Example 419, 3-{3-[(1S,2S)-4,6-dichloro-2-((R)-3-hydroxypyrrolidin-1-yl)indan-1-yloxy]phenyl}oxazolidin-2-one]
< 1 µM |  | CS(=O)(=O)c1ccc(O[C@H]2c3c(ccc(Cl)c3Cl)C[C@@H]2N2CCCNCC2)cc1 (racemic) [Example 288, 1-[rac-trans-(1,2)-6,7-dichloro-1-(4-methanesulfonylphenoxy)indan-2-yl]-[1,4]diazepane]
< 1 µM |  | CN1CCCN([C@H]2Cc3c(Cl)cc(Cl)cc3[C@@H]2Oc2ccc(S(C)(=O)=O)cc2)CC1 [Example 305, 1-[trans-(1S,2S)-4,6-dichloro-1-(4-methanesulfonylphenoxy)indan-2-yl]-4-methyl-[1,4]diazepane]
1 to 10 µM |  | CC(C)[C@H]1COC(=O)N1c1ccc(F)c(O[C@H]2c3cc(Cl)cc(F)c3C[C@@H]2N2CC[C@@H](O)C2)c1 [Example 210, (S)-3-{3-[(1S,2S)-6-chloro-4-fluoro-2-((R)-3-hydroxypyrrolidin-1-yl)indan-1-yloxy]-4-fluorophenyl}-4-isopropyloxazolidin-2-one]

Compound | IC50 | inhibition at 10 µM
Clc1cnccc1O[C@H]1c2ccccc2C[C@@H]1N1CCCC1 (racemic) [Example 441, 3-chloro-4-(2-pyrrolidin-1-ylindan-1-yloxy)pyridine] | 1 to 10 µM | 
